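Five concentrations, 48 hours, 96-well plates. Here, GI50 denotes the concentration required for 50% inhibition of growth.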 Active and inactive are the calls of the source. No stated cut-off is given here; in the data, active = GI50 up to about 1.1 µM and inactive = higher.
Key:
Assay in all cases: NCI anticancer screen, dose series, 48 h
786-0 = test system: 786-0
HCT-116 = test system: HCT-116
HCT-15 = test system: HCT-15
HL-60 = test system: HL-60
HOP-18 = test system: HOP-18
IGROV-1 = test system: IGROV-1
K562 = test system: K562
MCF7 = test system: MCF7
MDA-MB-435 = test system: MDA-MB-435
MDA-N = test system: MDA-N
Malme-3M = test system: Malme-3M
NCI-H23 = test system: NCI-H23
NCI-H460 = test system: NCI-H460
OVCAR-3 = test system: OVCAR-3
OVCAR-5 = test system: OVCAR-5
PC-3 = test system: PC-3
SK-MEL-2 = test system: SK-MEL-2
SK-MEL-5 = test system: SK-MEL-5
SR = test system: SR
UO-31 = test system: UO-31

SMILES | GI50 (786-0) | GI50 (HCT-116) | GI50 (HCT-15) [µM] | GI50 (HL-60) | GI50 (HOP-18) | GI50 (IGROV-1) | GI50 (K562) | GI50 (MCF7) | GI50 (MDA-MB-435) | GI50 (MDA-N) | GI50 (Malme-3M) | GI50 (NCI-H23) | GI50 (NCI-H460) | GI50 (OVCAR-3) | GI50 (OVCAR-5) | GI50 (PC-3) | GI50 (SK-MEL-2) | GI50 (SK-MEL-5) | GI50 (SR) | GI50 (UO-31)
COc1ccc2c(c1)[n+]([O-])c(/C(C)=N/NC(N)=S)c(C)[n+]2[O-] | 43.6 µM (inactive) | 39.9 µM (inactive) | 45.6 | 1.5 µM (inactive) | 95.1 µM (inactive) | > 88.1 µM (inactive) | 41.5 µM (inactive) | 41.4 µM (inactive) | 78.3 µM (inactive) | 51.3 µM (inactive) | 75.7 µM (inactive) | > 67.9 µM (inactive) | 27.8 µM (inactive) | 33.9 µM (inactive) | > 88.5 µM (inactive) | > 100 µM (inactive) | > 96.4 µM (inactive) | 41.2 µM (inactive) | 2 µM (inactive) | 49.7 µM (inactive)
Cc1ccc2[nH]c3c(C)c4cc[n+](C)cc4c(C)c3c2c1 | 0.328 µM (active) | 1.36 µM (inactive) | 14.1 | 5.12 µM (inactive) | 9.66 µM (inactive) | 1.19 µM (inactive) | 1.41 µM (inactive) | 1.95 µM (inactive) | 2.45 µM (inactive) | 4.03 µM (inactive) | 1.38 µM (inactive) | 1.23 µM (inactive) | 3.66 µM (inactive) | 2.84 µM (inactive) | 5 µM (inactive) | 0.63 µM (active) | 1.7 µM (inactive) | 1.65 µM (inactive) | 2.56 µM (inactive) | 5.19 µM (inactive)

Reference: ChEMBL document CHEMBL1201862, “PubChem BioAssay data set” (2004)
